Tested on: yeast genes (level of expressed mRNA)
Test: DNA chip analysis of expressed mRNA of yeast genes after 2 h culture with a toxic chemical substance
Format: cell-based, Saccharomyces cerevisiae S288C
Method in brief: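 Values are treated-to-control fluorescence ratios from a whole-yeast-genome DNA chip (65° C, over 12 h hybridization) using Cy3/Cy5-labelled cDNA from mRNA. Log-phase S288C cells in YPD at 25° C were exposed 2 h to a toxicant at sublethal, growth-inhibiting concentration.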

Substance: sodium dodecylbenzosulfonate [(17)]
- level of expressed mRNA in the presence of chemical substance/in its absence (gene YAL012W): 0.9
- The level of expressed mRNA in the presence of chemical substance/absence: YAL014C (gene YAL014C): 1.1
- The level of expressed mRNA in the presence of chemical substance/absence: YAL017W (gene YAL017W): 1.0
- The level of expressed mRNA in the presence of chemical substance/absence: YAL018C (gene YAL018C): 0.9
- level of expressed mRNA in the presence of chemical substance/in its absence (gene YAL038W): 1.0
- level of expressed mRNA in the presence of chemical substance/in its absence (gene YAL044C): 1.4
- The level of expressed mRNA in the presence of chemical substance/absence: YAL049C (gene YAL049C): 1.6
- level of expressed mRNA in the presence of chemical substance/in its absence (gene YAL054C): 1.5
- The level of expressed mRNA in the presence of chemical substance/absence: YAR047C (gene YAR047C): 1.7
- The level of expressed mRNA in the presence of chemical substance/absence: YAR064W (gene YAR064W): 0.9
- level of expressed mRNA in the presence of chemical substance/in its absence (gene YAR071W): 0.7
- level of expressed mRNA in the presence of chemical substance/in its absence (gene YBL001C): 1.6
- The level of expressed mRNA in the presence of chemical substance/absence: YBL044W (gene YBL044W): 0.8
- The level of expressed mRNA in the presence of chemical substance/absence: YBL100C (gene YBL100C): 0.8
- The level of expressed mRNA in the presence of chemical substance/absence: YBR012C (gene YBR012C): 1.4
- The level of expressed mRNA in the presence of chemical substance/absence: YBR013C (gene YBR013C): 1.4
- level of expressed mRNA in the presence of chemical substance/in its absence (gene YBR014C): 1.0
- level of expressed mRNA in the presence of chemical substance/in its absence (gene YBR023C): 0.7
- level of expressed mRNA in the presence of chemical substance/in its absence (gene YBR029C): 0.6
- level of expressed mRNA in the presence of chemical substance/in its absence (gene YBR035C): 1.5
- level of expressed mRNA in the presence of chemical substance/in its absence (gene YBR050C): 1.5
- The level of expressed mRNA in the presence of chemical substance/absence: YBR051W (gene YBR051W): 1.1
- The level of expressed mRNA in the presence of chemical substance/absence: YBR063C (gene YBR063C): 1.2
- The level of expressed mRNA in the presence of chemical substance/absence: YBR066C (gene YBR066C): 1.2
- level of expressed mRNA in the presence of chemical substance/in its absence (gene YBR068C): 1.1
- level of expressed mRNA in the presence of chemical substance/in its absence (gene YBR111C): 1.4
- The level of expressed mRNA in the presence of chemical substance/absence: YBR124W (gene YBR124W): 0.9
- The level of expressed mRNA in the presence of chemical substance/absence: YBR129C (gene YBR129C): 1.0
- level of expressed mRNA in the presence of chemical substance/in its absence (gene YBR145W): 1.7
- The level of expressed mRNA in the presence of chemical substance/absence: YBR162C (gene YBR162C): 1.2
- level of expressed mRNA in the presence of chemical substance/in its absence (gene YBR183W): 1.4
- level of expressed mRNA in the presence of chemical substance/in its absence (gene YBR222C): 0.8
- The level of expressed mRNA in the presence of chemical substance/absence: YBR255W (gene YBR255W): 1.0
- The level of expressed mRNA in the presence of chemical substance/absence: YBR281C (gene YBR281C): 0.7
- The level of expressed mRNA in the presence of chemical substance/absence: YBR287W (gene YBR287W): 3.2
- level of expressed mRNA in the presence of chemical substance/in its absence (gene YBR299W): 1.0
- level of expressed mRNA in the presence of chemical substance/in its absence (gene YCL009C): 1.1
- The level of expressed mRNA in the presence of chemical substance/absence: YCL042W (gene YCL042W): 0.8
- The level of expressed mRNA in the presence of chemical substance/absence: YCL044C (gene YCL044C): 0.9
- The level of expressed mRNA in the presence of chemical substance/absence: YCL056C (gene YCL056C): 1.2
- level of expressed mRNA in the presence of chemical substance/in its absence (gene YCL064C): 0.3
- The level of expressed mRNA in the presence of chemical substance/absence: YCR007C (gene YCR007C): 2.6
- level of expressed mRNA in the presence of chemical substance/in its absence (gene YCR037C): 1.4
- level of expressed mRNA in the presence of chemical substance/in its absence (gene YCR048W): 1.2
- level of expressed mRNA in the presence of chemical substance/in its absence (gene YCR098C): 1.7
- level of expressed mRNA in the presence of chemical substance/in its absence (gene YDL022W): 1.0
- The level of expressed mRNA in the presence of chemical substance/absence: YDL046W (gene YDL046W): 1.2
- The level of expressed mRNA in the presence of chemical substance/absence: YDL089W (gene YDL089W): 1.0
- The level of expressed mRNA in the presence of chemical substance/absence: YDL173W (gene YDL173W): 1.3
- The level of expressed mRNA in the presence of chemical substance/absence: YDL193W (gene YDL193W): 0.9
- The level of expressed mRNA in the presence of chemical substance/absence: YDL233W (gene YDL233W): 1.1
- level of expressed mRNA in the presence of chemical substance/in its absence (gene YDR009W): 1.2
- level of expressed mRNA in the presence of chemical substance/in its absence (gene YDR019C): 1.2
- The level of expressed mRNA in the presence of chemical substance/absence: YDR071C (gene YDR071C): 0.9
- The level of expressed mRNA in the presence of chemical substance/absence: YDR078C (gene YDR078C): 0.9
- The level of expressed mRNA in the presence of chemical substance/absence: YDR090C (gene YDR090C): 1.1
- The level of expressed mRNA in the presence of chemical substance/absence: YDR109C (gene YDR109C): 1.2
- The level of expressed mRNA in the presence of chemical substance/absence: YDR128W (gene YDR128W): 0.9
- The level of expressed mRNA in the presence of chemical substance/absence: YDR133C (gene YDR133C): 0.6
- The level of expressed mRNA in the presence of chemical substance/absence: YDR140W (gene YDR140W): 1.3
- The level of expressed mRNA in the presence of chemical substance/absence: YDR221W (gene YDR221W): 1.1
- The level of expressed mRNA in the presence of chemical substance/absence: YDR250C (gene YDR250C): 0.9
- The level of expressed mRNA in the presence of chemical substance/absence: YDR271C (gene YDR271C): 1.2
- The level of expressed mRNA in the presence of chemical substance/absence: YDR278C (gene YDR278C): 0.7
- The level of expressed mRNA in the presence of chemical substance/absence: YDR281C (gene YDR281C): 1.5
- The level of expressed mRNA in the presence of chemical substance/absence: YDR316W (gene YDR316W): 0.6
- The level of expressed mRNA in the presence of chemical substance/absence: YDR338C (gene YDR338C): 0.9
- The level of expressed mRNA in the presence of chemical substance/absence: YDR366C (gene YDR366C): 1.2
- level of expressed mRNA in the presence of chemical substance/in its absence (gene YDR380W): 0.8
- level of expressed mRNA in the presence of chemical substance/in its absence (gene YDR410C): 1.0
- The level of expressed mRNA in the presence of chemical substance/absence: YDR421W (gene YDR421W): 0.7
- The level of expressed mRNA in the presence of chemical substance/absence: YDR425W (gene YDR425W): 1.2
- The level of expressed mRNA in the presence of chemical substance/absence: YDR485C (gene YDR485C): 0.8
- level of expressed mRNA in the presence of chemical substance/in its absence (gene YDR487C): 1.5
- level of expressed mRNA in the presence of chemical substance/in its absence (gene YDR502C): 0.9
- The level of expressed mRNA in the presence of chemical substance/absence: YDR504C (gene YDR504C): 1.2
- level of expressed mRNA in the presence of chemical substance/in its absence (gene YEL011W): 1.4
- level of expressed mRNA in the presence of chemical substance/in its absence (gene YEL020C): 1.2
- The level of expressed mRNA in the presence of chemical substance/absence: YEL044W (gene YEL044W): 1.4
- level of expressed mRNA in the presence of chemical substance/in its absence (gene YER026C): 1.7
- level of expressed mRNA in the presence of chemical substance/in its absence (gene YER069W): 1.1
- The level of expressed mRNA in the presence of chemical substance/absence: YER092W (gene YER092W): 1.4
- The level of expressed mRNA in the presence of chemical substance/absence: YER182W (gene YER182W): 0.8
- The level of expressed mRNA in the presence of chemical substance/absence: YFL042C (gene YFL042C): 1.1
- level of expressed mRNA in the presence of chemical substance/in its absence (gene YFR015C): 1.3
- The level of expressed mRNA in the presence of chemical substance/absence: YFR026C (gene YFR026C): 1.1
- The level of expressed mRNA in the presence of chemical substance/absence: YFR056C (gene YFR056C): 1.1
- level of expressed mRNA in the presence of chemical substance/in its absence (gene YGL001C): 1.9
- level of expressed mRNA in the presence of chemical substance/in its absence (gene YGL022W): 0.9
- level of expressed mRNA in the presence of chemical substance/in its absence (gene YGL039W): 0.6
- The level of expressed mRNA in the presence of chemical substance/absence: YGL041C (gene YGL041C): 1.0
- The level of expressed mRNA in the presence of chemical substance/absence: YGL045W (gene YGL045W): 1.3
- The level of expressed mRNA in the presence of chemical substance/absence: YGL057C (gene YGL057C): 0.9
- The level of expressed mRNA in the presence of chemical substance/absence: YGL088W (gene YGL088W): 0.5

— patent publication US20050112573A1, “Method of detecting toxic substance” (priority 2001, published 2005)
